Experimental data reported in publication PMC11019550, “Potent Inhibition of E. coli DXP Synthase by a gem-Diaryl Bisubstrate Analog” (ACS Infectious Diseases, 2024).

Legend:
Type in all cases: biochemical
R99A EcDXPS = target: T1, R99A EcDXPS (Escherichia coli, UniProt P77488, R99A); test: IC50 determination for 8 on R99A EcDXPS variant; conditions: 400 nM DXPS, 2 × Km pyruvate, 10 × Km D-GAP
T1 construct: made in house
Description: (§1) EcDXPS and IspC were preincubated with inhibitor for 10 min at 25 °C in assay reaction buffer (100 mM HEPES pH 8, 2 mM MgCl2, 5 mM NaCl, 1 mM ThDP, and 200 μM NADPH). Enzyme concentrations for variants were as follows: 200 nM DXPS (wildtype EcDXPS) and 4 μM IspC; 400 nM DXPS (R99A and R478A EcDXPS) and 6 μM IspC. The reaction was initiated by the addition of substrates at final concentrations of 2 × Km pyruvate and 10 × KmD-GAP. NADPH consumption was monitored at 340 nm for 10 min at 25 °C. The initial rate of NADPH consumption was used to determine the initial rate of DXP formation catalyzed by DXPS. Experiments were performed in triplicate and error bars represented standard error.

R478A EcDXPS = target: T2, R478A EcDXPS (Escherichia coli, UniProt P77488, R478A); test: IC50 determination for 8 on R478A EcDXPS variant; conditions: 400 nM DXPS, 2 × Km pyruvate, 10 × Km D-GAP
T2 construct: made in house
Description: as §1

EcR99A DXPS = target: T3, EcR99A DXPS (Escherichia coli, UniProt P77488, R99A); test: Time-dependent inhibition, reaction progress curves on EcR99A; conditions: 8 at 700 nM or 200 μM
T3 construct: made in house
Description: Figure S8. Replicates of reaction progress curves for DXP formation on EcR99A in the presence or absence of 8. Reactions were initiated by simultaneous addition of substrates (780 µM pyruvate and 2400 µΜ D-GAP) in the presence or absence of 8 (700 nM or 200 µM) at 25 °C. Reaction progress was measured using the DXPS-IspC coupled assay. Experiments were performed in […]
Figure S9. Representative CD traces illustrating behavior of the CD signal corresponding to PLThDP formed from 8 on WT and EcDXPS variants. A) CD traces showing lack of a significant shift in CD signal following addition of pyruvate (1 mM, red trace) to E-PLThDP formed from 8 (blue trace) on WT B) Observed shift toward a LThDP-like CD signal following addition EcDXPS. of pyruvate to E-PLThDP formed from 8 on EcR99A DXPS. C) Observed shift toward a LThDP-like CD signal following addition of pyruvate to E-PLThDP formed from 8 on EcR478A DXPS. […]

WT EcDXPS = target: T4, WT EcDXPS (Escherichia coli, UniProt P77488); test: Time-dependent inhibition, reaction progress curves on WT EcDXPS; conditions: 8 at 400 or 800 nM, 10 at 1 or 100 μM
T4 construct: made in house
Description: To determine if 8 is also a slow-onset inhibitor of DXPS, reaction progress was monitored upon simultaneous addition of substrates (pyruvate and D-GAP) in the presence or absence of inhibitor. In the absence of inhibitor, the reaction progress curve is linear. […] To assess the importance of the carboxyl group of 8, we evaluated descarboxy analog 10 in the same manner.
EcDXPS (100 nM) and IspC (2 μM) were preincubated in enzyme reaction buffer (100 mM HEPES pH 8, 2 mM MgCl2, 5 mM NaCl, 1 mM ThDP, and 200 μM NADPH) with 250 μM D-GAP for 10 min at 25 °C. The reaction was initiated by the addition of pyruvate (1 mM) and inhibitor (400 nM and 800 nM 8; 1 μM and 100 μM 10). The reaction mixture was incubated at 25 °C, and the absorbance of NADPH at 340 nm was monitored. The change in the absorbance of NADPH over time was used to calculate [DXP] (μM) produced over time. Experiments were performed in triplicate.

CC(=O)P(=O)(O)OCCc1cn(C(Cc2ccccc2)(Cc2ccccc2)C(=O)O)nn1 [Compound 8]
IC50 (R99A EcDXPS): 3.007 ± 0.015 µM
IC50 (R478A EcDXPS): 1.01 ± 0.381 µM
time dependence of inhibition (progress curve for DXP formation) (EcR99A DXPS): loss of time-dependent behavior
time dependence of inhibition (progress curve for DXP formation) (WT EcDXPS): time dependence of inhibition
